The values that follow come from a compilation of properties of binary mixtures (doi:10.1007/s10953-006-9073-6).

The data set in a line: xn = mol fraction of the nth substance listed. Conditions: 298.15 K, 101 kPa.

Usually speed of sound stands for how fast a sound wave travels through the sample.

SMILES strings stand for the structures.

In the case of `CCCC[n+]1ccn(C)c1.[Cl-]` + CCO, the speed of sound (x2 = 0.1874) is listed as 1744.8 m/s; the speed of sound (x2 = 0.4815) was 1598.2 m/s; the speed of sound (x2 = 0.6209) was determined as 1515 m/s; the speed of sound (x2 = 0.7217) was 1443 m/s; the speed of sound (x2 = 0.8982) came out at 1279.1 m/s; the speed of sound (x2 = 0.9373) worked out at 1232.5 m/s.
Regarding `CCCC[n+]1ccn(C)c1.[Cl-]` + O, the speed of sound reads like this: (x2 = 0.2213) 1838.3 m/s; (x2 = 0.308) 1828.2 m/s; (x2 = 0.3852) 1831.3 m/s; (x2 = 0.5017) 1845 m/s; (x2 = 0.5976) 1859.6 m/s; (x2 = 0.6987) 1872.8 m/s. The speed of sound was 1881.5 m/s (x2 = 0.8012), 1853.7 m/s (x2 = 0.8967) and 1754.7 m/s (x2 = 0.9504).
